Three compounds from patent EP0885890A1, “SULFONYLUREIDOPYRAZOLE DERIVATIVES” (SUMITOMO PHARMACEUTICALS COMPANY, LIMITED, priority 1996, dated 1997) can be followed below.

For assay [1], the target named is T1, rat lung ECE (Rattus norvegicus, UniProt P42893).
T1 construct: The solution was ultracentrifuged to obtain a supernatant, which can be used as the rat lung ECE; from tissue; host or cells: rat lung
T1 sequence (P42893 1-762): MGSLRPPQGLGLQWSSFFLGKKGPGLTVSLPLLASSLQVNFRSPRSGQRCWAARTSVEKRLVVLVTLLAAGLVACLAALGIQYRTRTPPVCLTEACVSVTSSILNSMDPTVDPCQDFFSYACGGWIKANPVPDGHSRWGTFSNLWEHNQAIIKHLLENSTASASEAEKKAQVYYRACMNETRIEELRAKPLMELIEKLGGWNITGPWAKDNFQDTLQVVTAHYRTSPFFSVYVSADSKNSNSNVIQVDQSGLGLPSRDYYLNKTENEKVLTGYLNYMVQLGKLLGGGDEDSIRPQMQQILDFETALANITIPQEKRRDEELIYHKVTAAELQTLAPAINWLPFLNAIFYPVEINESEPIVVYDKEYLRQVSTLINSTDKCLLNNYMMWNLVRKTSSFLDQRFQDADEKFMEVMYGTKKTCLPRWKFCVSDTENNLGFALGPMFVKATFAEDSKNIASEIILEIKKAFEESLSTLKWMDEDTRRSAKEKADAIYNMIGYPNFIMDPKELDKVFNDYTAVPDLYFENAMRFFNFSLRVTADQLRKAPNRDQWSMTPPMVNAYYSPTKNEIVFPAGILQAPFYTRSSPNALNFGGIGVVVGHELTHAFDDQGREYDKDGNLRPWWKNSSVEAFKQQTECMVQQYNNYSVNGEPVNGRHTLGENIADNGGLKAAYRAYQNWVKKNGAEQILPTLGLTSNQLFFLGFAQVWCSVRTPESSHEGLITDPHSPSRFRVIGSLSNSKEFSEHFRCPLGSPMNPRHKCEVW
The assay can be described thus: ECE inhibitory activity (rat lung ECE, conversion of human big ET-1 to ET-1, sandwich enzyme immunoassay). The format is biochemical. Conditions: rat lung ECE 10 µg, human big ET-1 0.8µg, 37°C, one hour. The method, then:
Preparation of rat lung ECE and measurement of ECE inhibitory activity
Rat lung tissue was homogenized with a homogenizer in ice-cold 20 mM Tris-HCl buffer (pH7.5) containing 5 mM magnesium chloride, 1 mM phenylmethylsulfonyl fluoride (PMSF), 20 µM pepstatin A, and 20 µM leupeptin. The homogenate was centrifuged at 800 x G, and the supernatant was ultracentrifuged at 100,000 x G. Then, the procedures in which the resulting pellet was resuspended in the above buffer and ultracentrifuged as shown above, were repeated further twice so that plasma components and the like were removed. The resulting pellet was suspended, homogenized with a glass homogenizer, and ultracentrifuged. The resulting pellet was solubilized in 0.5% Triton X- 100. The solution was ultracentrifuged to obtain a supernatant, which can be used as the rat lung ECE. Each test compound and the rat lung ECE (10 µg) were preincubated at 37°C for 15 minutes in a 100mM Tris-HCl buffer (pH7.0) containing 1mM NEM, 100µM leupeptin, and 20µM pepstatin A, and then human big ET-1 (0.8µg) was added thereto (totally 200µl), and the mixture was incubated at 37°C for one hour.
The reaction was stopped by the addition of EDTA to give a final concentration of 1mM. ECE activities were determined to quantify the produced ET-1 by the ET-1 specific sandwich enzyme immunoassay method.
ECE inhibitory activities of the test compounds were evaluated by determination of the ECE activities in the presence or absence of the test compounds.

Assay [2] concerns the target T2, ECE (Rattus norvegicus, UniProt P42893).
T2 construct: from tissue; host or cells: whole anesthetized male SD rat (in vivo)
T2 sequence (P42893 1-762): T1 sequence (P42893 1-762)
The assay can be described thus: Effect on the change in blood pressure induced by big ET-1 in anesthetized rats (ECE inhibition in vivo). Also noted: species or system Male SD rat. Conditions: for Increase in systolic pressure: 15 minutes before big ET-1 (1nmol/kg i.v.), vehicle group 96 ± 4. The method, then: Test 2 Effect on the change in blood pressure induced by big ET-1 in rats
Male SD rat (body weight 230∼280g) was anesthetized with sodium thiobarbiturate (65mg/kg, i.p.) and fixed on a warming surgical bed, and the right femoral artery and the vein were cannulated for measurement of arterial blood pressure and for injection of test compounds, respectively. The ganglia were blocked by intraperitoneal administration of pentolinium (10mg/kg). After stabilization of blood pressure for about 10 minutes, test compound or its vehicle (polyethylene glycol 400) was administered intravenously (0.5ml/kg). Fifteen minutes later, the big ET-1 (1nmol/kg) was administered intravenously. ECE inhibitory activities of the test compounds in vivo shown by an index of the change in blood pressure induced by big ET-1 were evaluated by inhibitory ratio to that of the vehicle group.

Assay [3] addresses stromelissin (Homo sapiens, UniProt P08254). The assay can be described thus: Inhibitory activity against metalloproteases other than ECE (stromelissin). The settings on record: at 10^-5M. The assay is classed as biochemical. The text has this:
(§1) The inhibitory activity of the compound of Preparation 1 against metalloproteases other than ECE, such as endopeptidase, stromelissin, and the like, are under 20% at 10^-5M, and therefore, the compound is highly specific to ECE.

Assay [4] deals with endopeptidase. The assay can be described thus: Inhibitory activity against metalloproteases other than ECE (endopeptidase). The format is biochemical. Conditions: at 10^-5M.
From the text: as §1

Chain of stromelissin (P08254 100-477): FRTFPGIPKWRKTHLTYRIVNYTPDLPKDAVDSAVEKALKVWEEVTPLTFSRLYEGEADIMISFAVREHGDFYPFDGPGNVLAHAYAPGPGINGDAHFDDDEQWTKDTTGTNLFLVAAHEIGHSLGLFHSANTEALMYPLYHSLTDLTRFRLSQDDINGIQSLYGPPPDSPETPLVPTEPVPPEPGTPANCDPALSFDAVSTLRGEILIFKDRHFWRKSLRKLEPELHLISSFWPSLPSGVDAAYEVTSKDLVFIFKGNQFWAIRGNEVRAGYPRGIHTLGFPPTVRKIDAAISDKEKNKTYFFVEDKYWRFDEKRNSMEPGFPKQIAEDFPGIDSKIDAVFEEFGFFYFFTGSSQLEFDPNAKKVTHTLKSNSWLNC

Consider `Cc1ccc(S(=O)(=O)NC(=O)Nc2c(C#N)cnn2C2CCCCC2)cc1` [Example 4, 4-cyano-1-cyclohexyl-5-{3-(4-toluenesulfonyl)ureido}-(1H)-pyrazole], for which the IC50 – broadly, the concentration at which inhibition is half-maximal – in assay [1] amounted to 290 nM.
`Cc1nn(-c2ccccc2)c(NC(=O)NS(=O)(=O)c2ccc(Cl)cc2)c1C#N` [Example 37, 4-cyano-3-methyl-1-phenyl-5-{3-(4-chlorobenzenesulfonyl)ureido}-(1H)-pyrazole] returned an IC50 in assay [1] of 45 nM. Besides, the “Big ET-1-induced increasing in blood pressure” value in assay [2] (3 and 10mg/kg intravenously) is “apparently inhibited”. Also, the “Increase in systolic pressure” value in assay [2] (Dose 3 mg/kg intravenously) was 65 ± 8 mmHg; in assay [2] (Dose 10 mg/kg intravenously), 34 ± 6 mmHg.
Take `Cc1ccc(S(=O)(=O)NC(=O)Nc2c(C#N)cnn2-c2ccccc2)cc1` [Preparation 1, 4-cyano-1-phenyl-5-{3-(4-toluenesulfonyl)ureido}-(1H)-pyrazole]: in assay [3], the inhibition (usually the percentage by which the read-out fell short of the control) at 10 µM was below 20%. In assay [1], this compound registered an IC50 of 4600 nM. Further, in assay [4], the inhibitory activity entry is reported as “under 20%”.
